Laboratory results taken from patent US6743917B2, “Camptothecin analogs and methods of preparation thereof” (University of Pittsburgh, priority 1993, dated 2004).
pIC50: −log10 of the molar value. Where two headings read alike, the source gives them in different places. Each block holds one compound with its values, some of them ahead of it.

Experiments:
[1] = human; for t1/2: blood
Experimental: (§2) Kinetics of Lactone Ring Opening. The hydrolysis kinetics of camptothecins in the presence of different blood components were determined by a quantitative C18 reversed-phase high-performance liquid chromatography (HPLC) assay as described in the literature. […] The preparation of whole blood and fractionated blood samples was carried out as described previously. […] HSA stock solutions were prepared in PBS buffer with a final pH of 7.40±0.05. […] All other agents were reagent grade and were used without further purification. High purity water provided by a Milli-Q UV PLUS purification system (Bedford, Mass.) was utilized in all experiments.
(§3) All experiments were carried out at physiological temperature.

in vitro = settings: human
Experimental: as §2, §3

[2] = Kinetics of lactone ring opening in PBS buffer (HPLC); assay type: physicochemical; settings: for % Lactone at Equilibrium: PBS; for half-life: pH 7.4
Experimental: Kinetics of Lactone Ring Opening. […] Mi and Burke (1994), supra.
FIG. 21 summarizes the stability of DB172 in phosphate buffered saline (PBS) buffer, pH 7.4, at physiological temperature. Shown in the figure are plots of lactone fraction as a function of time for DB172 at different concentrations. Drug was added to solution from a concentrated DMSO stock solution such that the volumes of DMSO were very small (less than 0.5%) relative to the volume of water. […] At the more dilute drug concentrations the drug hydrolyzes as previously observed for other camptothecins containing the ^α-hydroxy-^δ-lactone moiety.

[3] = Kinetics of lactone ring opening in RBC (HPLC); assay type: in vitro ADME, human
Text: Kinetics of Lactone Ring Opening. […] Mi and Burke (1994), supra. […] Louis, Mo.) was used.

[4] = test system: HL-60 (human promyelocytic leukemic) cells; assay: Cytotoxicity assay, HL-60 cells (XTT-microculture tetrazolium assay); assay type: cell-based; settings: Homo sapiens; HL-60 cells, 72 hr incubation, XTT; read-out: Inhibition of cancer cell growth IC50, HL-60
Experimental: The camptothecin derivatives were evaluated for their cytotoxic effects on the growth of HL-60 (human promyelocytic leukemic), 833K (human teratocarcinoma) and DC-3F (hamster lung) cells in vitro. The cells were cultured in an initial density of […]. They were maintained in a 5% CO2 humidified atmosphere at 37° C. in RPMI-1640 media (GIBCO-BRL Grand Island, N.Y.) containing penicillin 100 μ/ml)/streptomycin (100 ^μg/ml) (GIBCO-BRL) and 10% heat inactivated fetal bovine serum. The assay was performed in duplicate in 96-well microplates. The cytotoxicity of the compounds toward HL-60 cells following 72 hr incubation was determined by XTT-microculture tetrazolium assay. Scudiero, D. A., et al., Cancer Res., 48, 4827 (1988), the disclosure of which is incorporated herein by reference. 2′, 3′-bis(-methoxy-4-nitro-5-sulfheny)-5-[(phenylamino)carbonyl]-2H-tetrazolium hydroxide (XTT) was prepared at 1 mg/ml in prewarmed (37° C.) medium without serum. Phenazine methosulfate (PMS) and fresh XTT were mixed together to obtain 0.075 mM PMS-XTT solution (25 ^μl of the stock 5 mM PMS was added per 5 ml of 1 mg/ml XTT). Fifty ^μl of this mixture was added to each well of the cell culture at the end of 72 hr incubation. After incubation at 37° C. for 4 hr., absorbance at 450 nm and 630 nm was measured with a microplate reader (EL340, Bio-Tek Instruments, Inc., Winooski, Vt.).

[5] = test system: 833K (human teratocarcinoma) cells; assay: Cytotoxicity assay, 833K cells (sulforhodamine B protein content); assay type: cell-based; settings: Homo sapiens; 833K cells, sulforhodamine B; read-out: Inhibition of cancer cell growth IC50, 833K
Experimental: (§1) Cultures were fixed with trichloroacetic acid and then stained for 30 minutes with 0.4% sulforhodamine B dissolved in 1% acetic acid. Unbound dye was removed by acetic acid washes, and the protein-bound dye was extracted with an unbuffered Tris base [tris(hydroxy-methyl)aminomethan] for determination of absorbance at 570 nm in a 96-well microplate reader. The experiments were carried out in duplicate using five to six concentrations of the drugs tested. Data were analyzed via computer software.

[6] = test system: DC-3F (hamster lung) cells; assay: Cytotoxicity assay, DC-3F cells (sulforhodamine B protein content); assay type: cell-based; settings: Mesocricetus auratus, DC3F; DC-3F cells, sulforhodamine B; read-out: Inhibition of cancer cell growth IC50, DC-3F
Experimental: as §1

[7] = Equilibrium binding to DMPG small unilamellar vesicles (fluorescence anisotropy titration); settings: PBS buffer at PH 7.4 and 37° C.
[8] = Equilibrium binding to DMPC small unilamellar vesicles (fluorescence anisotropy titration); settings: for KDMPC overall association constant: PBS buffer at PH 7.4 and 37° C.
[9] = Kinetics of lactone ring opening in PBS containing HSA (HPLC); settings: for % Lactone at Equilibrium / t1/2: HSA (PBS containing 30 mg/ml HSA)
Experimental: as §2, §3

[10] = Kinetics of lactone ring opening in whole human blood (HPLC); settings: Whole Blood, physiological temperature;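 further: hydrolytic opening of the camptothecin lactone ring followed over time by quantitative C18 reversed-phase HPLC in human whole blood at physiological temperature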
Experimental: as §2, §3

[11] = Self-association in aqueous solution (fluorescence intensity with time); assay type: physicochemical; settings: lactone drug forms added to solution, time=0
Experimental: FIG. 22 summarizes the dependence of the fluorescence intensity of DB172 as a function of time and pH. In these experiments DB172 is added to solution as the lactone form. At low pH where the drug remains in the lactone form, the change in intensity with time is the lowest. At pH 10, where the conditions are such that the lactone more readily hydrolyzes and forms carboxylate, a significant change in fluorescence intensity is observed. It appears that a pH 10 nonfluorescent micellular aggregates composed of lactone disassemble and form open-ring carboxylate forms that tend to exist in solution as monomeric fluorescent species.
FIG. 23 explores the fluorescence intensity of DB172 as a function of concentration. Following the addition of low concentration of lactone drug to solution, the change in fluorescence signal is the greatest whereas at high drug concentration (10 ^μM) the fluorescence intensity changes are minimal. It is believed that a low concentration the micellular aggregates of DB172 displaying reduced fluorescence can disassemble and form fluorescent carboxylate species, but at higher drug concentration the equilibrium favors that the agent remains in the aggregated or reduced fluorescence state. […] Once again this decrease in fluorescence that occurs at reduced pH appear to be due to the formation of lactone aggregates of reduced fluorescence quantum yield.
FIGS. 21 through 24 are consistent with the unusual ability of DB172 lactone to self-associate and form micelles at micromolar drug concentrations. The micellular DB172 aggregates display a reduced fluorescence. If conditions allow for hydrolysis to occur such that carboxylate forms, there is an increase in the fluorescence intensity of the sample. FIG. 25 compares the relative change in the fluorescence emission of a sample following addition of lactone drug forms to solution. In these experiments the values for each drug are normalized to a value of 1 at time equals to zero, and the ability of the various analogs to disassociate in the event the drugs are aggregated at time=0 is monitored with time. […]

[12] = test system: MDA-MB-435 tumorigenic metastatic human breast cancer cells; assay: cells; assay type: cell-based
Experimental: Cells. […] The cells were exposed to a range of drug concentrations for 72 hr exposure periods and then viability was assessed using a sulphorrhodamine B (SRB) assay. SRB assays were performed using a standard assay.
Sulphorhodamine B (SRB) assay was used. This assay measures the total protein levels in the living cells. Proteins from dead cells are lysed and removed in the washing step before TCA fixation. However, it is possible that cells in the early stage of death still have their membrane integrity and therefore retain the protein contents inside. As a result, the optical density at 490 nm can sometimes be overestimated and the cytotoxicity underestimated. […] The SRB assay is now a well regarded assay and was recently approved by NCI as a standard assay for anticancer drug screening.

[13] = earlier studies; cited from earlier work

Structure (SMILES): CCC1(O)C(=O)OCc2c1cc1n(c2=O)Cc2c-1nc1ccccc1c2[Si](C)(C)C(C)(C)C (stereo in doubt) [Example 2, (20S)-7-tert-butyldimethylsilylcamptothecin]
% Lactone at Equilibrium [1]: 1.0 +/− 0.1%
half-life (in vitro; blood): 71.9 min
% Lactone at Equilibrium [2]: 12.2 +/− 0.4%
half-life ([2]; buffer): 27.9 min
% Lactone at Equilibrium ([3]; human): 59.4 +/− 0.0%
half-life ([3]; human): 79.4 min
pIC50 [4]: 9.92
pIC50 [5]: 8.92
pIC50 [6]: 8.54

Structure (SMILES): CCC1(O)C(=O)OCc2c1cc1n(c2=O)Cc2c-1nc1ccc(N)cc1c2[Si](C)(C)C (stereo in doubt) [Example 8, (20S)-10-amino-7-trimethylsilylcamptothecin]
% Lactone at Equilibrium [1]: 12.3 +/− 0.0%
half-life (in vitro; blood): 37.6 min
% Lactone at Equilibrium [2]: 10.5 +/− 0.3%
half-life ([2]; buffer): 31.3 min
pIC50 [4]: 9.28
pIC50 [5]: 8.24
KDMPG overall association constant [7]: 360 M⁻¹
pIC50 [6]: 9.14
KDMPC overall association constant [8]: 820 M⁻¹

Structure (SMILES): CC[C@@]1(O)C(=O)OCc2c1cc1n(c2=O)Cc2c-1nc1ccccc1c2[Si](C)(C)CCCN(C)C.Cl [DB-104, 7-(3-dimethylaminopropyldimethylsilyl) camptothecin hydrochloride salt]
t1/2 [1]: 77.2 ± 1.8 min
% Lactone at Equilibrium [2]: 7.5 +/− 0.2%
t1/2 ([2]; buffer): 24.1 ± 1.0 min

Structure (SMILES): CC[C@@]1(O)C(=O)OCc2c1cc1n(c2=O)Cc2c-1nc1ccc(O)cc1c2[Si](C)(C)CCCCl [DB-158, (20S)-10-hydroxy-7-(3-chloropropyldimethylsilyl) camptothecin]
% Lactone at Equilibrium [2]: 11.3 +/− 1.8%
% Lactone at Equilibrium ([3]; RBC): 50.2 +/− 1.7%
t1/2 ([3]; RBC): 67.7 ± 8.5 min
% Lactone at Equilibrium [9]: 17.2 +/− 0.7%
t1/2 [9]: 48.0 ± 0.9 min
% Lactone at Equilibrium [10]: 17.8 +/− 2.0%
t1/2 [10]: 65.3 ± 9.0 min

Structure (SMILES): CC[C@@]1(O)C(=O)OCc2c1cc1n(c2=O)Cc2c-1nc1ccccc1c2CC[Si](C)(C)C [DB-172, (20S)-7-[(2-Trimethylsilyl)ethyl]camptothecin]
lactone ring stability at high drug concentrations ([2]; PBS buffer, pH 7.4, physiological temperature): marked stabilization of the lactone ring
% Lactone at Equilibrium [9]: 4.3 +/− 1.0%
t1/2 [9]: 86.1 ± 10.3 min
self-association / aggregation state in solution [11]: self-associates to an exceptionally high degree
KDMPG overall association constant [7]: 10600 M⁻¹
% Lactone at Equilibrium [10]: 24.1 +/− 2.6%
t1/2 [10]: 106.6 ± 10.8 min
KDMPC overall association constant [8]: 10500 M⁻¹
K value for DMPC, fold greater than camptothecin ([8]; relative to camptothecin): ~100 fold

Structure (SMILES): CC[C@@]1(O)C(=O)OCc2c1cc1n(c2=O)Cc2c-1nc1ccc(N)cc1c2CC[Si](C)(C)C [DB-173]
half-life (in vitro; whole blood): 69 min
% Lactone at Equilibrium [2]: 11.9 +/− 0.3%
half-life ([2]; buffer): 45.3 min
half-life ([9]; human, PBS containing 30 mg/ml HSA, pH 7.4): 49 min
self-association / aggregation state in solution [11]: much more likely to be found in solution as monomeric drug relative to DB172
KDMPG overall association constant [7]: 5800 M⁻¹
pIC50 ([12]; Homo sapiens, MDA-MB-435, 72 h, read-out: IC50 (w/o HSA)): 8.40
effect of 1 mg/ml HSA on the cytotoxic activity ([12]; MDA-MB-435 cells): no effect
KDMPC overall association constant [8]: 5800 M⁻¹
K value for DMPC, fold greater than camptothecin ([8]; relative to camptothecin): ~58 fold

lactone level at equilibrium in whole blood, fold greater than 9-aminocamptothecin [1]: approximately 40 fold
% Lactone at Equilibrium [10]: 21.0%
Structure (SMILES): CCc1c2c(nc3ccc(OC(=O)N4CCC(N5CCCCC5)CC4)cc13)-c1cc3c(c(=O)n1C2)COC(=O)[C@]3(O)CC [IRT, irinotecan, reference compound]
% lactone at equilibrium in whole human blood [13]: 21.0%
pIC50 [4]: 6.57
pIC50 [5]: 6.31
pIC50 [6]: 6.43

Structure (SMILES): CCc1c2c(nc3ccc(O)cc13)-c1cc3c(c(=O)n1C2)COC(=O)[C@]3(O)CC [SN-38, 10-hydroxy-7-ethylcamptothecin, reference compound]
t1/2 [1]: 50.7 ± 1.4 min
% lactone at equilibrium in whole human blood [13]: 19.5%
KDMPG overall association constant [7]: 160 M⁻¹
% Lactone at Equilibrium [10]: 19.5%
% Lactone at Equilibrium ([10]; listed as SN 38): 20.2 +/− 1.9%
KDMPC overall association constant [8]: 260 M⁻¹

lactone level at equilibrium in whole blood, fold greater than 9-aminocamptothecin [1]: 20 fold
half-life (in vitro; whole blood): 30.9 min
% Lactone at Equilibrium [9]: 7.06 +/− 0.3%
% Lactone at Equilibrium [10]: 8.61 +/− 0.4%
% Lactone at Equilibrium ([10]; listed as topotecan): 8.6%
K value for DMPC liposomes, times less than that for camptothecin ([8]; relative to camptothecin): ~10 times
Structure (SMILES): CC[C@@]1(O)C(=O)OCc2c1cc1n(c2=O)Cc2cc3c(CN(C)C)c(O)ccc3nc2-1 [Topotecan, topotecan, reference compound]
% lactone at equilibrium in whole human blood [13]: 11.9%
